Source: patent US20260240851A1, “Treatment of Parkinson's Disease in a Patient Using a Glucocerebrosidase Activator” (BIAL - R&D Investments, S.A., priority 2023, published 2026)
Where two headings read alike, the source gives them in different places.

Key:
Type in all cases: in vivo, human
[1] = LTI-291-003: NeuroCart, MMSE, MDS-UPDRS, EEG; conditions: 10, 30, 60 mg daily for 28 days, GBA-PD
Protocol: (§1) GluCer, GluSph, and LacCer were measured in plasma, PBMCs, and CSF as biomarkers of pharmacological effects. The pharmacodynamic evaluations also consisted of a battery of NeuroCart assessments (Saccadic Eye Movements, Smooth Pursuit Eye Movements, Adaptive Tracking, Body Sway, and Visual Verbal Learning Test); functional outcome measures (MDS-UPDRS Part III, and the MMSE); and pharmaco-EEG.

[2] = LTI-291-003: safety and tolerability
Text: (§2) This study was a Phase 1b, randomized, double-blind, placebo-controlled, multiple oral dose study of Compound A in 40 subjects (aged 40 to 80 years) with GBA-PD. Approximately 50% of the enrolled subjects had major (loss of 30%-50% total activity) mutations in GCase and 50% had polymorphism mutation (loss of 10%-20% of total activity) mutations in GCase. The objectives of this study were to investigate the safety, tolerability, and PK of multiple once-daily oral administration of Compound A and to explore the accompanying pharmacodynamic changes in subjects with GBA-PD with major and polymorphism mutations. Subjects received once-daily oral doses of 10 mg (n=10), 30 mg (n=10), or 60 mg (2×30 mg capsules) (n=10) Compound A or placebo (n=10) for 28 consecutive days.

[3] = LTI-291-003 multiple dose study in GBA-PD: plasma and CSF pharmacokinetics; conditions: for Tmin / Tmax: median; for Kp at 4 h / Cmax / AUC(0-t) / Tmax: human, oral; for Kp at 4 h: CSF and plasma, after the 28th daily dose, read-out: CSF-to-plasma concentration ratio, mean (SD); for Cmax / AUC(0-t) / Tmax: plasma
Text: as §2
Blood samples for Compound A concentrations were collected up to 6 hours after the first and last doses. CSF samples for Compound A concentrations were taken before the first dose and 4 hours after the last dose for each dose level.

[4] = LTI-291-002: CNS (NeuroCart) assessments
Protocol: This study was a phase 1, randomized, double-blind, placebo-controlled, multiple ascending dose study of Compound A in 4 cohorts of middle-aged to elderly healthy participants (aged 52 to 75 years). […] A total of 39 healthy subjects were enrolled in 4 sequential cohorts. Subjects in each cohort received once-daily oral doses of 3 mg (n=7), 10 mg (n=8), 30 mg (n=8), or 60 mg (n=8) Compound A or placebo (n=8) for 14 days. Pharmacokinetic parameters were determined for each dose at Day 1, Day 7, and Day 14. Cerebrospinal fluid samples for Compound A concentrations were measured before the first dose and 4 hours after the last dose for each dose level. GluCer, glucosyl sphingosine (GluSph), and lactosyl-ceramide (LacCer) were measured in plasma, PBMCs, and CSF as biomarkers of pharmacological effects. Pharmacodynamic measurements consisted of battery of CNS (NeuroCart®) assessments including Saccadic Eye Movements, Smooth Pursuit Eye Movements, Adaptive Tracking, Body Sway, Visual Verbal Learning Test, and pharmaco-EEG.

[5] = BIA 28-6156-107 DDI: effect of multiple-dose carbamazepine on single-dose PK of Compound A; conditions: for Tmax / half-life: both sexes, human, in vivo, oral; for Tmax: read-out: Median Tmax; for half-life: read-out: geometric mean t1/2 (converted)
[6] = tested on: GluCer, GluSph and LacCer in plasma, PBMCs and CSF; assay: LTI-291-003: glycolipid biomarkers; conditions: for GluCer and LacCer in PBMCs: GBA-PD
Protocol: as §1

[7] = tested on: GluCer, GluSph and LacCer in PBMCs and plasma; assay: LTI-291-004: glycolipid biomarkers
Protocol: This study was a Phase 1B, randomized, double-blind, placebo-controlled, multiple oral dose study of Compound A in 14 subjects (aged 51 to 81 years) with GBA-PD. The objectives of this study were to investigate the safety, tolerability, and PK of multiple once-daily oral administration of Compound A and to explore the accompanying pharmacodynamic changes. Subjects received once-daily oral doses of 10 mg (n=6) or 60 mg (2×30 mg capsules) (n=6) Compound A or placebo (n=2) for 28 consecutive days. PK samples were measured once on Day 7 and Day 14 and 4 times after the last dose on Day 28. Plasma concentrations were summarized at each time point, and no PK parameters were estimated. The PD evaluations included fMRI measures; FDG-PET to determine the metabolic rate of glucose in specific regions of the brain; and functional outcome measures (MDS-UPDRS Part III and the MMSE). GluCer, GluSph, and LacCer and other sphingolipids were measured in PBMCs and plasma as biomarkers of pharmacological effect.

[8] = 10 mg daily, dose 28, GBA-PD, geometric mean
[9] = 30 mg daily, dose 1, GBA-PD, geometric mean
[10] = 30 mg daily, dose 28, GBA-PD, geometric mean
[11] = 60 mg daily, dose 1, GBA-PD, geometric mean
[12] = 60 mg daily, dose 28, GBA-PD, geometric mean
[13] = Compound A + carbamazepine vs Compound A alone
[14] = 60 mg Compound A administered alone

With `CCCCCO[C@H]1CC[C@H](NC(=O)c2cnn3c(C)cc(C)nc23)CC1` [Compound A, 5,7-dimethyl-N-((1S*,4S)-4-(pentyloxy)cyclohexyl)pyrazolo[1,5-a]pyrimidine-3-carboxamide] the “effects on NeuroCart tests, MMSE, MDS-UPDRS, EEG” value [1] was “no dose-dependent effects”, the “deaths, SAEs, severe AEs, discontinuations due to AEs” value ([2]; 10-60 mg daily for 28 days, GBA-PD) was “No deaths, other SAEs, severe AEs, or discontinuations due to AEs” and the “vital signs, laboratory safety assessments, ECG parameters” value ([2]; 28 days) was “no clinically significant safety observations”. The “AE back pain, patients” value ([2]; all Compound A groups) was 13.3%, the “AE fatigue, patients” value ([2]; all Compound A groups) was 16.7% and the “AE headache, subjects” value ([2]; all Compound A groups) was 13.3%. For the same molecule, the “AE worsening of Parkinson's disease symptoms, subjects” value ([2]; all Compound A groups) was 13.3%, the Cmax/dose ([3]; 10 mg daily, dose 1, GBA-PD, geometric mean) was 25.4 ng/mL/mg and the AUC0-last/dose ([3]; 10 mg daily, dose 1, GBA-PD, geometric mean (% CV)) was 109 (32.8) ng · h/mL mg. The AUC0-last/dose [3, 8] was 252 ng·h/mL/mg, the Cmax/dose [3, 8] was 52.0 ng/mL/mg and the Cmin [3, 8] was 246 ng/mL. For the same molecule, the Tmin ([3]; 10 mg daily, dose 28, GBA-PD) was 26.3 h, the AUC0-last/dose [3, 9] was 76.8 ng·h/mL/mg and the Cmax/dose [3, 9] was 18.7 ng/mL/mg. The AUC0-last/dose [3, 10] was 241 ng·h/mL/mg, the Cmax/dose [3, 10] was 47.9 ng/mL/mg and the Cmin [3, 10] was 788 ng/mL. For the same molecule, the Tmin ([3]; 30 mg daily, dose 28, GBA-PD) was 26.1 h, the AUC0-last/dose [3, 11] was 102 ng·h/mL/mg and the Cmax/dose [3, 11] was 25.5 ng/mL/mg. For the same molecule, the Cmax/dose [3, 12] was 46.6 ng/mL/mg, the Cmin [3, 12] was 1370 ng/mL and the AUC0-last/dose ([3]; 60 mg daily, dose 28, GBA-PD, geometric mean (% CV)) was 234 (15.7) ng · h/mL mg. The Tmin ([3]; 60 mg daily, dose 28, GBA-PD) was 26.0 h, the “total exposure (Cmax and AUC0-last) versus dose” value ([3]; 10 to 60 mg, after 1st and 28th dose) was “increase in a dose proportional manner” and the “time of peak plasma concentrations (median)” value ([3]; after the 1st and 28th daily dose) was 2.0 h. For the same molecule, the Kp at 4 h ([3]; 10 mg) was 0.0113, the Kp at 4 h ([3]; 30 mg) was 0.0122 and the Kp at 4 h ([3]; 60 mg) was 0.0115. It also gave a Cmax ([3]; 10 mg, 10 mg daily, dose 1, GBA-PD, geometric mean (% CV)) of 254 ng/mL, an AUC(0-t) ([3]; 10 mg, 10 mg daily, dose 1, GBA-PD, geometric mean, read-out: AUC0-6) of 1080 ng·h/mL and an AUC(0-t) ([3]; 10 mg, 10 mg daily, dose 1, GBA-PD, geometric mean, read-out: AUC0-last) of 1090 ng·h/mL. The Cmax ([3]; 10 mg, 10 mg daily, dose 28, GBA-PD, geometric mean) was 520 ng/mL, the AUC(0-t) ([3]; 10 mg, 10 mg daily, dose 28, GBA-PD, geometric mean, read-out: AUC0-6) was 2520 ng·h/mL and the AUC(0-t) ([3]; 10 mg, 10 mg daily, dose 28, GBA-PD, geometric mean, read-out: AUC0-last) was 2520 ng·h/mL. It also gave a Cmax ([3]; 30 mg, 30 mg daily, dose 1, GBA-PD, geometric mean (% CV)) of 561 ng/mL, an AUC(0-t) ([3]; 30 mg, 30 mg daily, dose 1, GBA-PD, geometric mean, read-out: AUC0-6) of 2300 ng·h/mL and an AUC(0-t) ([3]; 30 mg, 30 mg daily, dose 1, GBA-PD, geometric mean, read-out: AUC0-last) of 2300 ng·h/mL. It also gave a Cmax ([3]; 30 mg, 30 mg daily, dose 28, GBA-PD, geometric mean) of 1440 ng/mL, an AUC(0-t) ([3]; 30 mg, 30 mg daily, dose 28, GBA-PD, geometric mean, read-out: AUC0-6) of 7230 ng·h/mL and an AUC(0-t) ([3]; 30 mg, 30 mg daily, dose 28, GBA-PD, geometric mean, read-out: AUC0-last) of 7230 ng·h/mL. For the same molecule, the Cmax ([3]; 60 mg, 60 mg daily, dose 1, GBA-PD, geometric mean) was 1530 ng/mL, the AUC(0-t) ([3]; 60 mg, 60 mg daily, dose 1, GBA-PD, geometric mean, read-out: AUC0-6) was 6080 ng·h/mL and the AUC(0-t) ([3]; 60 mg, 60 mg daily, dose 1, GBA-PD, geometric mean, read-out: AUC0-last) was 6100 ng·h/mL. For the same molecule, the Cmax ([3]; 60 mg, 60 mg daily, dose 28, GBA-PD, geometric mean) was 2790 ng/mL, the AUC(0-t) ([3]; 60 mg, 60 mg daily, dose 28, GBA-PD, geometric mean, read-out: AUC0-6) was 14100 ng·h/mL and the AUC(0-t) ([3]; 60 mg, 60 mg daily, dose 28, GBA-PD, geometric mean, read-out: AUC0-last) was 14100 ng·h/mL. The Tmax ([3]; 10 mg daily, dose 1, GBA-PD) was 2 h, the Tmax ([3]; 30 mg daily, dose 1, GBA-PD) was 2 h and the Tmax ([3]; 60 mg daily, dose 1, GBA-PD) was 2 h. The “PK in healthy subjects versus subjects with GBA-PD” value ([3]; in vivo) was “similar”, the “EEG Alpha-power Pz-Oz, eyes closed” value ([4]; 3 mg vs placebo) was “significant decrease” and the “effects on CNS (Neurocart) tests” value ([4]; 3-60 mg daily for 14 days) was “no dose-dependent effects”. For the same molecule, the saccadic inaccuracy ([4]; 10 and 30 mg groups vs placebo) was “significant increase”, the “saccadic peak velocity or reaction time” value ([4]; vs placebo) was “No changes” and the “AUC0-inf ratio of geometric least squares means (point estimate)” value [5, 13] was 0.363. The “AUC0-last ratio of geometric least squares means (point estimate)” value [5, 13] was 0.367, the “Cmax ratio of geometric least squares means (point estimate)” value [5, 13] was 0.877 and the Tmax [5, 14] was 1 h. For the same molecule, the half-life [5, 14] was 28 h, the Tmax ([5]; 60 mg Compound A coadministered with carbamazepine) was 2 h and the half-life ([5]; Compound A coadministered with carbamazepine) was 12 h. The “reduction of AUC0-inf” value ([5]; with carbamazepine vs alone) was 64%, the “reduction of AUC0-last” value ([5]; with carbamazepine vs alone) was 63% and the “reduction of Cmax” value ([5]; with carbamazepine vs alone) was “approximately 12%”. For the same molecule, the “GluCer and LacCer in PBMCs” value ([6]; 7 and 14 days of treatment) was “statistically significant increase”, the “dose-response or exposure-response of PBMC glycolipid effects” value ([6]; 10, 30, 60 mg/day) was “no obvious dose-response or exposure response relationship” and the “plasma or CSF levels of glycolipids” value ([6]; 28 days) was “no obvious changes”. The “GluCer and LacCer in PBMCs” value ([6]; 28 days of treatment) was “smaller increase”, the “PBMC glycolipid effects by severity of GBA1 mutation” value ([6]; Gaucher or major vs polymorphism GBA1 mutations) was “generally greater” and the “Intracellular GluSph in PBMCs” value ([6]; vs placebo) was “did not show a clear response”. For the same molecule, the PBMC glycolipid levels ([7]; 10 or 60 mg daily for 28 days, GBA-PD) was “Significant changes”, the “Plasma LacCer” value ([7]; upon Compound A treatment) was “tended to decrease” and the “plasma GluCer or GluSph” value ([7]; upon Compound A treatment) was “no effect was observed”.
